{"source": "paper PMC10808794", "about": "“Snakebite drug discovery: high-throughput screening to identify novel snake venom metalloproteinase toxin inhibitors” (Frontiers in Pharmacology, 2024)", "key": {"[1]": {"set-up": "method as in Williams et al., 2011b", "details": "ref Williams et al., 2011b; cited from earlier work"}, "[2]": {"tested_on": "SVMP activity of Echis ocellatus venom", "assay": "SVMP fluorogenic substrate assay, E. ocellatus venom", "type": "biochemical", "details": "for EC50: E. ocellatus venom, 20-min endpoint, N/A = did not cross 50% inhibition at any dose, read-out: EC50, known inhibitors validation screen; for activity at the top dose tested: top 10 µM dose, negative control drugs", "experimental": "(§1) Daughter plates and assay-ready plates were stored at −20°C, with the latter used within a month of creation. For SVMP assay-ready plates, 0.91 µL of each drug from the respective daughter plate was plated, such that in the final assay volume of 91 μL, a final concentration of 10 µM was reached. […] In secondary screening, dose response curves were created, with a top final assay concentration of 10 µM and reaching sub-nanomolar concentrations (concentration range was dependent on specific plate layout), with each concentration tested in duplicate.\n(§2) The SVMP activity of crude venom in the presence of inhibitors or vehicle control (DMSO) was measured using a quenched fluorogenic substrate (substrate for MMPs, ADAMs and Cathepsins, Cat no: ES010, Bio-Techne). […] Reactions consisted of 1 µg of venom in 15 µL PBS co-incubated with 0.91 µL of inhibitor at a concentration of 1 mM. […] The plates were read on a CLARIOstar microplate reader (BMG Labtech), at an excitation wavelength of 320–10 nm and emission wavelength of 420–10 nm with 10 flashes per well at 25°C, at a pre-defined end read time. The end-read times were selected independently for each venom, as the plateau point for the venom + vehicle control (maximum fluorescence) identified in an initial 1-h kinetic read.\n(§3) The SVMP activity for the end-read data was calculated for each test condition as a percentage of the mean of the venom + vehicle wells (100% activity), with a baseline of the marimastat 10 µM controls representing 0% activity (Supplementary Equation S1)."}, "[3]": {"tested_on": "SVMP activity of Calloselasma rhodostoma venom", "assay": "SVMP fluorogenic substrate assay, C. rhodostoma venom", "type": "biochemical", "details": "20-min endpoint, read-out: EC50, known inhibitors validation screen", "experimental": "as §1, §2, §3"}, "[4]": {"tested_on": "SVMP activity of Bothrops jararaca venom", "assay": "SVMP fluorogenic substrate assay, B. jararaca venom", "type": "biochemical", "details": "30-min endpoint, read-out: EC50, known inhibitors validation screen", "experimental": "as §1, §2, §3"}, "[5]": {"tested_on": "SVMP activity of Bitis arietans venom", "assay": "SVMP fluorogenic substrate assay, B. arietans venom", "type": "biochemical", "details": "40-min endpoint, read-out: EC50, known inhibitors validation screen", "experimental": "as §1, §2, §3"}, "[6]": {"tested_on": "SVMP activity of Crotalus atrox venom", "assay": "SVMP fluorogenic substrate assay, C. atrox venom", "details": "read-out: EC50, known inhibitors validation screen, 30-min endpoint", "experimental": "as §1, §2, §3"}, "[7]": {"tested_on": "SVMP activity of five viper venoms", "assay": "SVMP fluorogenic substrate assay, summary across the panel of five viper venoms", "type": "biochemical", "details": "for EC50: five venoms", "experimental": "as §1, §2, §3"}, "[8]": {"tested_on": "5-HT2A", "set-up": "method as in MedChemExpress", "details": "IP accumulation assays; ref MedChemExpress; read-out: IC50, 5-HT2A inverse agonist; cited from earlier work"}, "[9]": {"tested_on": "5-HT2C", "set-up": "method as in MedChemExpress", "details": "IP accumulation assays; ref MedChemExpress; read-out: IC50, 5-HT2C partial inverse agonist; cited from earlier work"}, "[10]": {"tested_on": "5-HT2B", "set-up": "method as in MedChemExpress", "details": "IP accumulation assays; ref MedChemExpress; read-out: IC50, 5-HT2B inverse agonist; cited from earlier work"}, "[11]": {"set-up": "method as in MedChemExpress", "details": "ref MedChemExpress; cited from earlier work"}, "[12]": {"tested_on": "patients", "set-up": "method as in Conatus Pharmaceuticals Inc, 2012", "details": "30 mg per day for up to 24 weeks; ref Conatus Pharmaceuticals Inc, 2012; cited from earlier work"}, "[13]": {"tested_on": "patients", "set-up": "method as in Bissett et al., 2005", "details": "ref Bissett et al., 2005, cited from earlier work"}, "[14]": {"biological_target": "5 alpha Reductase", "set-up": "method as in MedChemExpress", "details": "benign prostatic hyperplasia, ref MedChemExpress, cited from earlier work"}, "[15]": {"details": "read-out: EC50 against each of the venoms, secondary screen"}, "[16]": {"details": "validation screen, read-out: EC50 range across all venoms, known inhibitors"}, "[17]": {"details": "validation screen, read-out: average EC50 across all venoms"}}, "note": "“And” between values parts separate entries of the source, which are not always exact repeats. Equal entries are not always repeated. Structures can show the parent of a compound that is named as a salt. Where two headings read alike, the source gives them in different places.", "data": [{"smiles": "COCCOC(=O)N1CCN(S(=O)(=O)c2cc(F)c(Oc3ccc(Cl)cc3)c(F)c2)C(C(=O)NO)C1", "note": "(stereo not shown) [XL-784]", "values": [{"measurement": "aqueous solubility", "setting": "[1]", "result": 20, "unit": "µg/mL"}]}, {"smiles": "CNC(=O)[C@@H](NC(=O)[C@H](CC(C)C)[C@H](O)C(=O)NO)C(C)(C)C", "note": "[marimastat, (2S,3R)-N4-[(1S)-2,2-Dimethyl-1-[(methylamino)carbonyl]propyl]-N1,2-dihydroxy-3-(2-methylpropyl)butanediamide]", "values": [{"measurement": "EC50", "setting": "[2]", "result": 0.00499, "unit": "µM"}, {"measurement": "EC50", "setting": "[3]", "result": 0.0277, "unit": "µM"}, {"measurement": "EC50", "setting": "[4]", "result": 0.00746, "unit": "µM"}, {"measurement": "EC50", "setting": "[5]", "result": 0.00236, "unit": "µM"}, {"measurement": "EC50", "setting": "[6]", "result": 0.012, "unit": "µM"}]}, {"smiles": "OCCN1C[C@H](O)[C@@H](O)[C@H](O)[C@H]1CO", "note": "[miglitol]", "values": [{"measurement": "EC50", "setting": "[7]; [15]", "result": "> 1", "unit": "µM"}]}, {"smiles": "NS(=O)(=O)c1cc2c(cc1Cl)N=CNS2(=O)=O", "note": "[chlorothiazide]", "values": [{"measurement": "EC50", "setting": "[7]; [15]", "result": "> 1", "unit": "µM"}]}, {"smiles": "COc1ccc(NC(=O)Nc2ccc(F)cc2F)cc1-c1c(Br)cnn1C", "note": "[Nelotanserin]", "values": [{"measurement": "IC50", "setting": "[8]", "result": 0.0017, "unit": "µM"}, {"measurement": "IC50", "setting": "[9]", "result": 0.079, "unit": "µM"}, {"measurement": "IC50", "setting": "[10]", "result": 0.791, "unit": "µM"}, {"measurement": "Solubility in DMSO", "setting": "[11]", "result": "≥ 32 mg/mL and ≥ 73.19 mM"}]}, {"smiles": "CS(=O)(=O)O.N=C(N)c1ccc2cc(OC(=O)c3ccc(N=C(N)N)cc3)ccc2c1", "note": "[nafamostat, (6-Carbamimidoylnaphthalen-2-yl)4-(diaminomethylideneamino)benzoate methanesulfonic acid]", "values": [{"measurement": "activity at the top dose tested", "setting": "[2]", "result": "no activity"}]}, {"smiles": "O=C(NO)C1(CS(=O)(=O)c2ccc(Oc3ccc(Cl)cc3)cc2)CCOCC1", "note": "[CTS-1027]", "values": [{"measurement": "adverse events in Phase II trials", "setting": "[12]", "result": "a range of serious adverse events"}]}, {"smiles": "CC1(C)SCCN(S(=O)(=O)c2ccc(Oc3ccncc3)cc2)[C@H]1C(=O)NO", "note": "[prinomastat, prinomastat hydrochloride]", "values": [{"measurement": "EC50", "setting": "[2]", "result": 0.00435, "unit": "µM"}, {"measurement": "EC50", "setting": "[3]", "result": 0.0367, "unit": "µM"}, {"measurement": "EC50", "setting": "[4]", "result": 0.00953, "unit": "µM"}, {"measurement": "EC50", "setting": "[5]", "result": 0.00242, "unit": "µM"}, {"measurement": "toxicity observed in Phase III trials", "setting": "[13]; 15 mg bi-daily dosing for 3–36 months", "result": "musculoskeletal toxicity was observed in a significant proportion of patients"}, {"measurement": "thromboembolic risk in Phase III trials", "setting": "[13]; cancer patients receiving combination chemotherapy", "result": "increased risk of venous thromboembolic disease"}, {"measurement": "EC50", "setting": "[6]", "result": 0.0198, "unit": "µM"}]}, {"smiles": "S=C(N/N=C1\\CCCc2cccnc21)N1CCN(c2ccccn2)CC1", "note": "[COTI-2]", "values": [{"measurement": "fold superiority of EC50 to dimercaprol", "setting": "[7]; across all venoms, secondary screen", "result": "> 2", "unit": "fold"}, {"measurement": "EC50", "setting": "[7]; read-out: EC50 range across all venoms, secondary screen", "result": "0.185 to 0.64", "unit": "µM"}]}, {"smiles": "OCC(S)CS", "note": "(stereo not shown) [dimercaprol, 2,3-dimercapto-1-propanol]", "values": [{"measurement": "EC50", "setting": "[2]", "result": "1.12 µM and 1.13 µM"}, {"measurement": "EC50", "setting": "[3]", "result": 6.86, "unit": "µM"}, {"measurement": "EC50", "setting": "[4]", "result": 0.558, "unit": "µM"}, {"measurement": "EC50", "setting": "[5]", "result": 2.29, "unit": "µM"}, {"measurement": "EC50", "setting": "[7]; [16]", "result": "0.558 to 6.86", "unit": "µM"}, {"measurement": "EC50", "setting": "[7]; [17]", "result": 3.14, "unit": "µM"}, {"measurement": "EC50", "setting": "[6]", "result": 4.89, "unit": "µM"}]}, {"smiles": "CNC(=O)[C@H](Cc1ccccc1)NC(=O)[C@H](CC(C)C)[C@H](CSc1cccs1)C(=O)NO", "note": "[batimastat, (2R,3S)-N4-Hydroxy-N1-[(1S)-2-(methylamino)-2-oxo-1-(phenylmethyl)ethyl]-2-(2-methylpropyl)-3-[(2-thienylthio)methyl]butanediamide]", "values": [{"measurement": "EC50", "setting": "[2]", "result": 0.00623, "unit": "µM"}, {"measurement": "EC50", "setting": "[3]", "result": 0.042, "unit": "µM"}, {"measurement": "EC50", "setting": "[4]", "result": 0.00557, "unit": "µM"}, {"measurement": "EC50", "setting": "[5]", "result": 0.00249, "unit": "µM"}, {"measurement": "EC50", "setting": "[6]", "result": 0.0154, "unit": "µM"}]}, {"smiles": "CC(C)(C)NC(=O)[C@H]1CC[C@H]2[C@@H]3CC[C@H]4NC(=O)C=C[C@]4(C)[C@H]3CC[C@]12C", "note": "[Finasteride]", "values": [{"measurement": "Ki", "setting": "[14]; epithelium, read-out: Ki, 5alpha-reductase activity in epithelium", "result": 0.01, "unit": "µM"}, {"measurement": "Ki", "setting": "[14]; stroma, read-out: Ki, 5alpha-reductase activity in stroma", "result": 0.033, "unit": "µM"}, {"measurement": "Solubility in DMSO", "setting": "[11]", "result": "150 mg/mL and 402.64 mM"}]}, {"smiles": "O=C(/C=C/c1cccc(S(=O)(=O)Nc2ccccc2)c1)NO", "note": "[belinostat]", "values": [{"measurement": "EC50", "setting": "[7]; [15]", "result": "> 1", "unit": "µM"}]}, {"smiles": "Cn1c(=O)cc(N2CCC[C@@H](N)C2)n(Cc2cc(F)ccc2C#N)c1=O", "note": "[trelagliptin (succinate), trelagliptin]", "values": [{"measurement": "EC50", "setting": "[7]; [15]", "result": "> 1", "unit": "µM"}]}, {"smiles": "O=S(=O)(O)CC(S)CS", "note": "(stereo not shown) [DMPS, 2,3-dimercapto-1-propane-sulfonic acid sodium salt monohydrate]", "values": [{"measurement": "EC50", "setting": "[2]", "result": 0.959, "unit": "µM"}, {"measurement": "EC50", "setting": "[3]", "result": 5.28, "unit": "µM"}, {"measurement": "EC50", "setting": "[4]", "result": 0.527, "unit": "µM"}, {"measurement": "EC50", "setting": "[5]", "result": 1.21, "unit": "µM"}, {"measurement": "EC50", "setting": "[7]; [16]", "result": "0.527 to 5.28", "unit": "µM"}, {"measurement": "EC50", "setting": "[7]; [17]", "result": 2.25, "unit": "µM"}, {"measurement": "EC50", "setting": "[6]", "result": 3.26, "unit": "µM"}]}, {"smiles": "CCc1c(C(=O)C(N)=O)c2c(OCC(=O)O)cccc2n1Cc1ccccc1", "note": "[varespladib, 2-[[3-(2-Amino-2-oxoacetyl)-2-ethyl-1-(phenylmethyl)-1H-indol-4-yl]oxy]-acetic acid]", "values": [{"measurement": "activity at the top dose tested", "setting": "[2]", "result": "no activity"}]}, {"smiles": "C[C@]12C=CC(=O)N[C@@H]1CC[C@@H]1[C@@H]2CC[C@]2(C)[C@@H](C(=O)Nc3cc(C(F)(F)F)ccc3C(F)(F)F)CC[C@@H]12", "note": "[Dutasteride]", "values": [{"measurement": "Solubility in DMSO", "setting": "[11]", "result": 63.06, "unit": "mM"}]}]}
